Assay results: patent US10221163B2 (priority 2015, dated 2019)
Where two headings read alike, the source gives them in different places.

Columns and labels:
[1] = tested on: Pseudomonas aeruginosa MB9798 vs MB9799; settings: ratio MITC95 PA_9798/MITC95 PA_9799
Outline: (§1)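 Microbroth MIC tests in PAO1-background strains with fixed imipenem and/or ceftazidime, usually at the CLSI breakpoint, plus fixed class A/C β-lactamase inhibitor against AmpC. MBL inhibitor titrated; concentration restoring susceptibility recorded and compared as fold difference between efflux+ MB9798 and efflux− MB9799.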

[2] = biological target: VIM-1 (Pseudomonas aeruginosa (strain ATCC 15692 / DSM 22644 / CIP 104116 / JCM 14847 / LMG 12228 / 1C / PRS 101 / PAO1), UniProt A0A0F7KYQ8); experiment: biochemical; settings: CCF2-FA substrate, 30 pM enzyme, 2 hours at 25° C.
Outline: (§2)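 Inhibitor was mixed with the metallo-β-lactamase and CCF2-FA. After 2 hours at 25° C, fluorescence of the coumarin–fluorescein cephalosporin substrate was read. IC50 was calculated with a 4-parameter fit.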

[3] = biological target: NDM-1 (Klebsiella pneumoniae, UniProt C7C422); experiment: biochemical; format: biochemical; settings: fluorescence assay, CCF2-FA substrate, 1 pM enzyme, 2 hours at 25° C.; read-out: NDM-1 IC50
Outline: as §2

[4] = biological target: IMP-1 (Serratia marcescens, UniProt P52699); experiment: biochemical; format: biochemical; settings: fluorescence assay, CCF2-FA substrate, 2 pM enzyme, 2 hours at 25° C.; read-out: IMP-1 IC50
Outline: as §2

[5] = tested on: Pseudomonas aeruginosa efflux+ (MB9798), IMP-1; format: cell-based; settings: concentration restoring susceptibility to imipenem at 2 μg/mL in the presence of a class A, C, D serine β-lactamase inhibitor closely related to relebactam
Outline: as §1

[6] = tested on: Pseudomonas aeruginosa efflux− (MB9799), IMP-1; format: cell-based; settings: concentration restoring susceptibility to imipenem at 2 μg/mL in the presence of a class A, C, D serine β-lactamase inhibitor closely related to relebactam
Outline: as §1

[7] = tested on: Escherichia coli expressing NDM-1 (CLB30005, CLB30016); format: cell-based; settings: NDM-1 strain, with imipenem 1 μg/ml, 95% inhibition of growth
Outline: (§3)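 Growth by absorbance after 22–24 h at 35°C defined the read-out, with imipenem fixed at 1 μg/ml alongside compound. Inocula came from overnight blood-agar colonies at 35°C, resuspended in saline and diluted 1:100 in 1.1×CAMHB.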

[8] = tested on: Klebsiella pneumoniae expressing VIM-1 (IHMA599644); format: cell-based; settings: VIM-1 strain IHMA599644, with imipenem 1 μg/ml, 95% inhibition of growth
Outline: as §3

[9] = tested on: Serratia marcescens expressing IMP-1 (CL5741); format: cell-based; settings: IMP-1 strain CL5741, with imipenem 1 μg/ml, 95% inhibition of growth
Outline: as §3

[10] = fluorescence assay, read-out: VIM-1 IC50

Chain of NDM-1 (C7C422 whole entry, looked up, species assumed): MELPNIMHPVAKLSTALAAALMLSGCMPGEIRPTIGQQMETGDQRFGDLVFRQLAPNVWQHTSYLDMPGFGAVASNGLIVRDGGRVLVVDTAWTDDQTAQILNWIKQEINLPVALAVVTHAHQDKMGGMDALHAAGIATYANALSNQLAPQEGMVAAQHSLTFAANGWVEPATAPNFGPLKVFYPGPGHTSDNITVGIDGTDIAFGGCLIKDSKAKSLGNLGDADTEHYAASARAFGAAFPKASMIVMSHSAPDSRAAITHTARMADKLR
Chain of IMP-1 (P52699 whole entry, looked up, species assumed): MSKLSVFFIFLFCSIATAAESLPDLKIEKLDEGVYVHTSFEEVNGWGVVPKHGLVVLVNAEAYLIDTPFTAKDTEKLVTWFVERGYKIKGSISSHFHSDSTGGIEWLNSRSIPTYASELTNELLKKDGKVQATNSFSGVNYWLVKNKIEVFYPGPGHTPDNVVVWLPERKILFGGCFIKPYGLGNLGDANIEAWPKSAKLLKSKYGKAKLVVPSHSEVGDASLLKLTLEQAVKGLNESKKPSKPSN

Structure (SMILES) | Efflux ratio [1] | IC50 ([2]; VIM-1 IC50, fluorescence assay) | IC50 [3] | IC50 [4] | P. aeruginosa expressing IMP-1, efflux + (MB9798) MITC95 [5] | P. aeruginosa expressing IMP-1, efflux − (MB9799) MITC95 [6] | Escherichia coli MITC95 [7] | Klebsiella pneumoniae MITC95 [8] | Serratia marcescens MITC95 [9] | IC50 [2, 10]
NC[C@H](O)CNS(=O)(=O)c1ccc(-c2ccc(N)nc2)c(-c2nn[nH]n2)c1S(N)(=O)=O [Example 309, (S)-N1-(3-amino-2-hydroxypropyl)-4-(6-aminopyridin-3-yl)-3-(2H-tetrazol-5-yl)benzene-1,2-disulfonamide] | 1.00 | 200 pM | 197 pM | 501 pM | 0.7813 µM | 0.7813 µM | 0.2279 µM | 1.563 µM | 0.5208 µM | 
Nc1nc2c(-c3ccc(S(=O)(=O)NC[C@@H]4CNCCN4)c(S(N)(=O)=O)c3-c3nn[nH]n3)cccc2[nH]1 [Example 310, (S)-4-(2-amino-1H-benzo[d]imidazol-4-yl)-N1-(piperazin-2-ylmethyl)-3-(2H-tetrazol-5-yl)benzene-1,2-disulfonamide] | 1.00 |  | 52.1 pM | 667 pM | 0.7813 µM | 0.7813 µM | 0.7813 µM | 1.563 µM | 0.7813 µM | 169 pM
Nc1ccc(-c2ccc(S(=O)(=O)NC[C@@H]3CNCCN3)c(S(N)(=O)=O)c2-c2nn[nH]n2)cn1 [Example 312, (S)-4-(6-aminopyridin-3-yl)-N1-(piperazin-2-ylmethyl)-3-(2H-tetrazol-5-yl)benzene-1,2-disulfonamide] | 1.00 | 280 pM | 216 pM | 586 pM | 1.563 µM | 1.563 µM | 0.3906 µM | 3.125 µM | 0.7813 µM | 
Nc1ncccc1-c1ccc(S(=O)(=O)NC[C@@H]2CNCCN2)c(S(N)(=O)=O)c1-c1nn[nH]n1 [Example 313, (S)-4-(2-aminopyridin-3-yl)-N1-(piperazin-2-ylmethyl)-3-(2H-tetrazol-5-yl)benzene-1,2-disulfonamide] | 2.00 | 149 pM | 81.7 pM | 1300 pM | 3.125 µM | 1.563 µM | 0.3906 µM | 3.125 µM | 0.7813 µM | 
Nc1nc2c(-c3ccc(S(=O)(=O)NC[C@H]4CNCCN4)c(S(N)(=O)=O)c3-c3nn[nH]n3)cccc2[nH]1 [Example 314, (R)-4-(2-amino-1H-benzo[d]imidazol-4-yl)-N1-(piperazin-2-ylmethyl)-3-(2H-tetrazol-5-yl)benzene-1,2-disulfonamide] | 1.00 |  | 32.6 pM | 485 pM | 0.7813 µM | 0.7813 µM | 0.7813 µM | 1.563 µM | 1.563 µM | 114 pM
Nc1ccc(-c2ccc(S(=O)(=O)NC[C@H]3CNCCN3)c(S(N)(=O)=O)c2-c2nn[nH]n2)cn1 [Example 315, (R)-4-(6-aminopyridin-3-yl)-N1-(piperazin-2-ylmethyl)-3-(1H-tetrazol-5-yl)benzene-1,2-disulfonamide] | 1.00 | 211 pM | 169 pM | 459 pM | 1.563 µM | 1.563 µM | 0.3906 µM | 6.25 µM | 0.7813 µM | 
Nc1ncccc1-c1ccc(S(=O)(=O)NC[C@H]2CNCCN2)c(S(N)(=O)=O)c1-c1nn[nH]n1 [Example 316, (R)-4-(2-aminopyridin-3-yl)-N1-(piperazin-2-ylmethyl)-3-(1H-tetrazol-5-yl)benzene-1,2-disulfonamide] | 2.00 | 212 pM | 175 pM | 2330 pM | 3.125 µM | 1.563 µM | 0.3906 µM | 6.25 µM | 0.7813 µM | 
C[C@H](CN)NS(=O)(=O)c1ccc(-c2ccnc(N)c2)c(-c2nn[nH]n2)c1S(N)(=O)=O [Example 317, (R)—N1-(1-aminopropan-2-yl)-4-(2-aminopyridin-4-yl)-3-(2H -tetrazol-5-yl) benzene-1,2-disulfonamide] | 0.50 |  | 170 pM | 495 pM | 1.563 µM | 3.125 µM | 0.7813 µM | 3.125 µM | 1.563 µM | 133 pM
C[C@H](CN)NS(=O)(=O)c1ccc(-c2cccc(N)n2)c(-c2nn[nH]n2)c1S(N)(=O)=O [Example 318, (R)—N1-(1-aminopropan-2-yl)-4-(6-aminopyridin-2-yl)-3-(2H-tetrazol-5-yl) benzene-1,2-disulfonamide] | 1.00 | 142 pM | 158 pM | 704 pM | 1.563 µM | 1.563 µM | 0.7813 µM | 3.125 µM | 3.125 µM | 
Nc1ccc2cccc(-c3ccc(S(=O)(=O)N[C@@H]4CNC[C@@H]4N)c(S(N)(=O)=O)c3-c3nn[nH]n3)c2n1 [Example 319, N^1-((3R,4S)-4-aminopyrrolidin-3-yl)-4-(2-aminoquinolin-8-yl)-3-(2H-tetrazol-5-yl)benzene-1,2-disulfonamide] | 1.00 |  | 48.3 pM | 265 pM | 0.7813 µM | 0.7813 µM | 1.563 µM | 1.563 µM | 1.563 µM | 206 pM
N[C@H]1CNC[C@H]1NS(=O)(=O)c1ccc(-c2cnc3cc[nH]c3c2)c(-c2nn[nH]n2)c1S(N)(=O)=O [Example 320] | 2.00 | 296 pM | 90.2 pM | 1210 pM | 1.563 µM | 0.7813 µM | 0.7813 µM | 3.125 µM | 0.7813 µM | 
Nc1ncc(-c2ccc(S(=O)(=O)N[C@@H]3CNC[C@@H]3N)c(S(N)(=O)=O)c2-c2nn[nH]n2)s1 [Example 321, N^1-((3R,4S)-4-aminopyrrolidin-3-yl)-4-(2-aminothiazol-5-yl)-3-(2H -tetrazol-5-yl)benzene-1,2-disulfonamide] | 2.00 | 958 pM | 376 pM | 1250 pM | 1.563 µM | 0.7813 µM | 0.7813 µM | 3.125 µM | 1.563 µM | 
N[C@H](CO)c1nc2c(-c3ccc(S(=O)(=O)N[C@H]4CNC[C@H]4N)c(S(N)(=O)=O)c3-c3nn[nH]n3)cccc2[nH]1 [Example 323, 4-(2-((S)-1-amino-2-hydroxyethyl)-1H-benzo[d]imidazol-4-yl)-N1-((3S,4R)-4-aminopyrrolidin-3-yl)-3-(2H-tetrazol-5-yl)benzene-1,2-disulfonamide] | 1.00 | 321 pM | 219 pM | 3390 pM | 1.563 µM | 1.563 µM | 1.563 µM | 3.125 µM | 3.125 µM | 
